Results from a melting point compilation (Tetko et al.; mined from patent text by program, amines drawn as free bases though some values may be those of a salt).

Compound	melting point
COc1ccc(S(=O)(=O)Nc2cccnc2/C=C/c2ccc(O)cc2)cc1	217 to 219 °C
CCOC(=O)CCCNc1cccc(Br)c1	65 °C
O=C(O)[C@H](Cc1ccc(O)cc1)NC(=O)C1(NC(=O)C2(S)CCCC2)CCCC1	90 °C
Cc1nc(-c2cn(-c3cc(C(F)(F)F)cc(-c4ccc(C(F)(F)F)cc4)n3)cn2)sc1S(=O)(=O)NC(C)(C)C	> 250 °C
O=C(Nc1ccc2ccc(Oc3ccc(Cl)cc3)nc2n1)c1ccccc1	148 °C
CCOC(=O)C(C(=O)OCC)[C@H](C[N+](=O)[O-])c1ccccc1	45 to 47 °C
COC1CC(N)C(O)C(C)O1 (stereo unspecified)	130 °C
O=C(c1ccccc1)N1CC(=O)N(CCc2ccccc2)C(=O)C1	102 °C
O=Cc1cc(O)c(O)c(C(F)(F)F)c1	188 to 192 °C
COc1ccc(OC)c2[nH]ccc12	193 to 195 °C
CCN1CCCC1CNC(=O)c1sc(C=O)c(C)c1OC (stereo unspecified)	122 to 123 °C
CC1OC1COc1ccc(C(=O)OC(C)(C)C)cc1 (stereo unspecified)	47 to 48 °C
O=P(O)(O)C(O)(CC(O)c1ccccc1)P(=O)(O)O (stereo unspecified)	132 °C
COc1ccc(-c2sc(NC(C)=O)nc2C)cc1S(N)(=O)=O	342 °C
CC1(CNc2ccccc2)SC2C(NC(=O)Cc3ccccc3)C(=O)N2C1C(=O)O (stereo unspecified)	120 °C
Brc1cnc(Sc2ncccn2)nc1	178 to 180 °C
Cc1[nH]c(-c2ccccc2)nc1C(O)C(C)C (stereo unspecified)	214 °C
CCOC(=O)c1cnc2ccccc2c1O	266 °C
Cc1cc(C)c2ncc(NC(=O)C=Cc3ccc(O)cc3)c(-c3ccccc3Cl)c2c1	228 to 230 °C
COC(=O)CCc1nc(C=O)ccc1OCCCC/C=C/c1ccc(OC)cc1	66 to 69 °C
N=C(N)NCc1ccc(N)c(I)c1	135 to 137 °C
CCCCOc1cc(/C=C(\OCC)C(=O)O)ccc1OCCc1ccc(OS(C)(=O)=O)cc1	117 °C
Cc1ccnc2c(N)cc3c(c12)OCO3	118 to 120 °C
O=C(C=NO)Nc1cc(Cl)cc(Cl)c1	196 to 197 °C

Compound	melting point
CC(C)n1nc(-c2cc(C(N)=O)c(Cl)nc2-c2ccccc2)ccc1=O	199 to 200 °C
CNS(=O)(=O)c1cc(C(=O)O)cc(N)c1Oc1ccccc1	283 °C
Cc1cc(I)ccc1NC(=S)N(C)N	160 to 161 °C
O=[N+]([O-])c1ccc(Oc2cccc3c(Oc4ccc([N+](=O)[O-])c([N+](=O)[O-])c4)cccc23)cc1[N+](=O)[O-]	224 to 228 °C
COc1cc(OC)nc(C(OC)(C(=O)NS(C)(=O)=O)c2ccccc2)n1 (stereo unspecified)	155 to 157 °C
N#CCCNC(=O)c1cccc(-c2cccc3oc(Cc4ccc(F)c(Cl)c4)cc23)c1	130 to 131 °C
O=C(CNc1ccccc1)Nc1ccc(F)cc1C(=O)O	194 to 195 °C
O=C(Nc1cccc(C(F)(F)F)c1)c1ccc([N+](=O)[O-])cc1	210 °C
O=C1c2ccc(Nc3ccc(F)cc3F)cc2CCc2cc(OCCO)ccc21	138 °C
Cc1c(NC(=O)c2cccc(OCCN)c2)c2ccccn2c1C(=O)c1ccc(NC(=O)C(F)(F)F)c(C(=O)OCc2ccccc2)c1	219 °C
COc1c(C=O)c(=O)n(C)c(=O)n1C	105 to 107 °C
FC(F)Oc1cccc(-c2ccc3nnn(Cc4ccc5ncccc5c4)c3n2)c1	122 to 125 °C
CC(=O)Oc1c(C(C)(C)C)cc2c(c1C(C)(C)C)CC(C)(C)O2	97.7 °C
CS(=O)(=O)Oc1ccc(-c2c3ccccc3c(Cl)c3sc4ccccc4c23)cc1	155 to 158 °C
O=C(O)c1ccc2c(c1)C(=O)c1ccccc1OC2	264 to 269 °C
CC1(c2ccc(-c3ccccc3)cc2)OC(=O)C(OCc2ccccc2)=C1O (stereo unspecified)	182 to 183 °C
O=C1c2ccccc2Cc2c1ccc(Cl)c2O	186 to 188 °C
Cc1cc(I)c(C(N)=O)cc1C	195 to 197 °C
CCOC(=O)c1ccc(C#CC(O)c2cc(C(C)(C)C)cc(C(C)(C)C)c2OC)cc1 (stereo unspecified)	101 to 103 °C
C=C1CCCC2(C)C1=CC(=O)C1C3CCC(=O)C3(C)CCC12 (stereo unspecified)	132 °C
BrCc1noc2c1ccc1ccccc12	100 to 103 °C
COC(=O)c1c(-c2ccc(C(F)(F)F)cc2)ccc2ccccc12	74 to 76 °C
CCOC(=O)C1=C(C)N(C)C(C)=C(C(=O)OC(C)C)C1c1cccc([N+](=O)[O-])c1 (stereo unspecified)	100 to 101 °C
CCCCOc1c(-c2cc(C=CC(=O)O)ccc2OC)cc(C(C)(C)C)cc1C(C)(C)C	204 to 206 °C

Second part, the compound after the results:

melting point	Compound
173 to 174 °C	COc1cc2cc(-c3c(F)cccc3F)sc2c(Cl)c1Cl
288 to 290 °C	O=C(N1CCOCC1)N1Cc2c(-c3nc4ccccc4o3)ncn2-c2ccccc21
110 °C	CCCN(CCCN1CCN(c2cccc(Cl)c2Cl)CC1)C1CCc2ncsc2C1 (stereo unspecified)
115 to 116 °C	COc1ccccc1CN1CCC(=O)C(C(c2ccccc2)c2ccc(F)cc2)C1 (stereo unspecified)
191 to 192 °C	O=C([C@H]1CC[C@H](Nc2nccc(-n3ncc4ccccc43)n2)CC1)N1CCOCC1
135 to 138 °C	O=C(Nc1ccc2ccccc2n1)c1ccc(COc2ccc3c(c2)CCC(CCN2CCCCC2)C3)cc1 (stereo unspecified)
205 to 206 °C	CC1=C(C(=O)OC(CN2CCCCC2)c2ccccc2)C(c2cccc([N+](=O)[O-])c2)n2ccnc2N1 (stereo unspecified)
81 to 82 °C	CCCC(=O)C1=C(O)CC(c2cccc3c2OCO3)CC1=O (stereo unspecified)
120 to 132 °C	CCN1CCc2cc(Nc3ncc(Cl)c(Nc4ccccc4C(=O)NC)n3)c(OC)cc2CC1=O
142 to 144 °C	Cc1cccc(-c2nn3c(c2-c2ccc(F)cc2)CC[C@H]3CO)n1
53 to 57 °C	CN1c2cccc3cccc(c23)N(C)C1(C)C
121 to 122 °C	CCOC(=O)C1Cc2sc(N)c(C(=O)c3ccccc3Cl)c2C1 (stereo unspecified)
187 to 189 °C	C=C(CC(=O)Nc1cccc(/C=C/c2nc(C3CCCCC3)cs2)c1)C(=O)O
134 to 138 °C	CCCCOc1ccc(-c2ncc(Br)cn2)cn1
198 °C	CCCC1=C(C(=O)OCC)C(c2ccnc3ccccc23)c2c[nH]nc2N1 (stereo unspecified)
180 to 183 °C	CC(C)(C)OC(=O)CN1C(=O)[C@@H](N[C@@H](CCC2CCCCC2)C(=O)O)COc2ccccc21
112 to 114 °C	CC(C)(O)c1ccc(-c2ccc(C(CC3CCOCC3)c3ccc(S(=O)(=O)C4CC4)cc3)[nH]2)nc1 (stereo unspecified)
166 to 169 °C	O=C(Nc1c(Cl)cccc1Cl)C1CC1
144 to 148 °C	CN1CCN(CCCNc2ncc3cc(-c4c(Cl)cccc4Cl)c(NC(=O)NCc4ccccc4)nc3n2)CC1
111 to 113 °C	COc1cccc(C(C)N(C)CCCOc2ccc(S(=O)(=O)c3c(C(C)C)cn4ccccc34)cc2)c1 (stereo unspecified)
86 to 88 °C	CCc1c(OCc2ccc(Cl)cc2)cnn(C(C)(C)C)c1=O
232 to 235 °C	CNC[C@H]1CC[C@H](c2nc3ccccc3[nH]2)CC1
123 to 128 °C	O=S(=O)(c1ccccc1)c1ccc2c(c1)OCCN2C1CCNC1 (stereo unspecified)
